# Data as given in patent US11008340B2, “Modulators of ROR-gamma” (Vitae Pharmaceuticals, LLC, priority 2015, dated 2021).
# Target: T1, recombinant RORγ Ligand Binding Domain (LBD) protein (Homo sapiens, UniProt P51449)
# T1 construct: 6×His; GST
# T1 sequence (P51449 269-508 limits assumed): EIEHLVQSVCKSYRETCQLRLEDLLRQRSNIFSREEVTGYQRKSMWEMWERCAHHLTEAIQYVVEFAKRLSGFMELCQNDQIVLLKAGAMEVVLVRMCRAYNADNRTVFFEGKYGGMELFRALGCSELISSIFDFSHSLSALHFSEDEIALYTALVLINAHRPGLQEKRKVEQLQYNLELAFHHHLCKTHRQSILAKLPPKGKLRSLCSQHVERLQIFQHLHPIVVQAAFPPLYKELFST
# Assay: Radio-Ligand RORγ Binding Assay (Assay 1)
# Details: competition with 25-hydroxy [26,27-3H]-cholesterol, SPA; class symbols; read-out: Avg ROR Bind Ki
# Procedure: Radio-Ligand RORγ Binding Assay (Assay 1)
# Compounds described herein were tested for ability to bind to RORγ in a cell-free competition assay with commercially available radio-ligand (RL), 25-hydroxy [26,27-^3H]-cholesterol (PerkinElmer, Cat. #NET674250UC), for a ligand binding site on a recombinant RORγ Ligand Binding Domain (LBD) protein expressed as a 6×His-Glutathione-S-Transferase (GST) fusion. The assay was performed in 96-well SPA plates (PerkinElmer, Cat. #1450-401) in 50 mM HEPES buffer, pH 7.4, containing 150 mM NaCl, 5 mM MgCl2, 10% (v/v) glycerol, 2 mM CHAPS, 0.5 mM 3-octylglucopyranoside and 5 mM DTT. Tested compounds were dissolved in DMSO, and semi-log (3.162×) serial dilutions of the compounds were prepared in the same solvent. Two μL of the DMSO solutions were mixed with 28 μL of 8.6 nM 25-hydroxy [26,27-^3H]-cholesterol and 50 μL of 24 nM RORγ LBD. The plate was shaken at 700 rpm for 20 min and incubated for 10 min at rt, after which 40 μL of poly-Lys YSi SPA beads (PerkinElmer, Cat. #RPNQ0010) were added to achieve 50 μg of the beads per well. The plate was incubated on an orbital shaker for 20 min and then for 10 min without agitation at rt. SPA signal for tritium beta radiation was registered on PerkinElmer Microbeta plate reader. […] The percent inhibition vs. concentration data were fit into a four-parameter model, and IC50 values were calculated from the fit as the concentrations corresponding to the inflection points on the dose-response curves. Inhibitory constants (Ki) were calculated using the following equation, where [RL] is the concentration in the assay and KD is a dissociation constant of 25-hydroxy [26,27-^3H]-cholesterol: […]
row,Structure (SMILES),Ki [nM]
1,"CCS(=O)(=O)c1ccc([C@H](CO)NC(=O)c2ccc3c(OC[C@H]4CC[C@H](C(F)(F)F)CC4)ncnc3c2)cc1 [Hy1C-1, N-((R)-1-(4-(ethylsulfonyl)phenyl)-2-hydroxyethyl)-4-(((1r,4R)-4-(trifluoromethyl)cyclohexyl)methoxy)quinazoline-7-carboxamide]",100 to 1000
2,"CCS(=O)(=O)c1ccc(CNC(=O)c2ccc3c(OC[C@H]4CC[C@H](C(F)(F)F)CC4)ncnc3c2)cc1 [Hy1C-2, N-(4-(ethylsulfonyl)benzyl)-4-(((1r,4r)-4-(trifluoromethyl)cyclohexyl)methoxy)quinazoline-7-carboxamide]",100 to 1000

# Same assay, conditions: radio-ligand competition, 25-hydroxy [26,27-3H]-cholesterol, RORγ LBD; read-out: Avg ROR Bind Ki
row,Structure (SMILES),Ki [nM]
1,"CCS(=O)(=O)c1ccc(CNC(=O)c2ccc3c(c2)CN(c2ncc(N4CCOCC4)cn2)C[C@@H]3C(C)C)cc1 (single isomer, unassigned) [Hy7-19.2]",> 1000
2,"CC[C@H]1CN(c2ncc(C(F)(F)F)cc2C#N)Cc2cc(C(=O)N[C@@H](CO)c3ccc(S(=O)(=O)CC)cc3)ccc21 (single isomer, unassigned) [Hy7-37.2]",< 100
3,"CCC1c2ccc(C(=O)NC(CO)c3ccc(S(=O)(=O)CC)cc3)cc2CCN1CC1CCC(C(F)(F)F)CC1 (single isomer, unassigned) [Hy2A-28.3]",100 to 1000
4,"CCS(=O)(=O)c1ccc(CNC(=O)c2cn(C)c3c(OC[C@H]4CC[C@H](C(F)(F)F)CC4)nccc23)cc1 [Hy5-4, N-(4-(ethylsulfonyl)benzyl)-1-methyl-7-(((1r,4r)-4-(trifluoromethyl)cyclohexyl)methoxy)-1H-pyrrolo[2,3-c]pyridine-3-carboxamide]",100 to 1000
5,"CCS(=O)(=O)c1ccc([C@H](CO)NC(=O)c2ccc3c(OC[C@H]4CC[C@H](C(F)(F)F)CC4)cc(C)nc3c2)cc1 [Hy1B-4, N-((R)-1-(4-(ethylsulfonyl)phenyl)-2-hydroxyethyl)-2-methyl-4-(((1r,4R)-4-(trifluoromethyl)cyclohexyl)methoxy)quinoline-7-carboxamide]",100 to 1000
6,"CC[C@H]1CN(c2ncc(-c3cccc(OC)n3)cn2)Cc2cc(C(=O)NCc3ccc(S(=O)(=O)CC)cc3)ccc21 (single isomer, unassigned) [Hy7-20.2]",100 to 1000
7,"CCS(=O)(=O)c1ccc(CNC(=O)c2cnc3c(C4CC4)n(C[C@H]4CC[C@H](C(F)(F)F)CC4)nc3c2)nc1 [Hy3B-3, 3-cyclopropyl-N-((5-(ethylsulfonyl)pyridin-2-yl)methyl)-2-(((1r,4r)-4-(trifluoromethyl)cyclohexyl)methyl)-2H-pyrazolo[4,3-b]pyridine-6-carboxamide]",100 to 1000
8,"CCS(=O)(=O)c1ccc(CNC(=O)c2c[nH]c3c(OC[C@H]4CC[C@H](C(F)(F)F)CC4)nccc23)cc1 [Hy5-2, N-(4-(ethylsulfonyl)benzyl)-7-(((1r,4r)-4-(trifluoromethyl)cyclohexyl)methoxy)-1H-pyrrolo[2,3-c]pyridine-3-carboxamide]",100 to 1000

# Second part, the molecule after the results:
row,Ki [nM],Structure (SMILES)
1,> 1000,"CCS(=O)(=O)c1ccc(CNC(=O)c2ccc3c(c2)CN(c2ncc(-c4ccn(C)c(=O)c4)cn2)C[C@@H]3C(C)C)cc1 (single isomer, unassigned) [Hy7-25.2]"
2,100 to 1000,"CCS(=O)(=O)c1ccc(CNC(=O)c2ccc3c(c2)CCN(Cc2ccc(C#N)nc2)[C@@H]3C(C)C)cc1 (single isomer, unassigned) [Hy2A-17.2]"
3,100 to 1000,"CCS(=O)(=O)c1ccc(CNC(=O)c2ccc3c(c2)CCN(Cc2ccc(OC(F)F)nc2)[C@@H]3C(C)C)cc1 (single isomer, unassigned) [Hy2A-25.2]"
4,> 1000,"CC1c2ccc(C(=O)NCc3ccc(S(C)(=O)=O)cc3)cc2CCN1Cc1ccc(C#N)cc1 (racemic) [Hy2A-7, 2-(4-cyanobenzyl)-1-methyl-N-(4-(methylsulfonyl)benzyl)-1,2,3,4-tetrahydroisoquinoline-6-carboxamide]"
5,100 to 1000,"CCS(=O)(=O)c1ccc(CNC(=O)c2ccc3c(c2)CCN(Cc2ncc(Br)cn2)[C@@H]3C(C)C)cc1 (single isomer, unassigned) [Hy2A-26.2]"
6,> 1000,"CCS(=O)(=O)c1ccc(CNC(=O)c2ccc3c(c2)CCN(Cc2ncc(C)cn2)[C@@H]3C(C)C)cc1 (single isomer, unassigned) [Hy2A-12.2]"
7,100 to 1000,"CCOC(=O)c1cnc(N2Cc3cc(C(=O)NCc4ccc(S(=O)(=O)CC)cc4)ccc3[C@@H](C(C)C)C2)nc1 (single isomer, unassigned) [Hy7-16.2]"
8,100 to 1000,"CCS(=O)(=O)c1ccc(CNC(=O)c2ccc3c(c2)CN(c2ncc(C#N)cn2)C[C@@H]3C(C)C)cc1 (single isomer, unassigned) [Hy7-2.2]"
9,100 to 1000,"CCOC(=O)c1cnc(N2CCc3cc(C(=O)NCc4ccc(S(=O)(=O)CC)cc4)ccc3[C@H]2C(C)C)nc1 (single isomer, unassigned) [Hy2A-4.2]"
10,100 to 1000,"CCS(=O)(=O)c1ccc(CNC(=O)c2ccc3c(c2)CCN(Cc2ccc(C#N)cc2)C3C)cc1 (racemic) [Hy2A-10, 2-(4-cyanobenzyl)-N-(4-(ethylsulfonyl)benzyl)-1-methyl-1,2,3,4-tetrahydroisoquinoline-6-carboxamide]"
11,100 to 1000,"CCS(=O)(=O)c1ccc(CNC(=O)c2ccc3c(c2)C(C)(C)CN(Cc2cnc(C)cn2)[C@@H]3C(C)C)cc1 (single isomer, unassigned) [Hy2A-22.2]"
12,100 to 1000,"CCS(=O)(=O)c1ccc(CNC(=O)c2ccc3c(c2)CCN(Cc2ccc(C#N)cn2)[C@@H]3C(C)C)cc1 (single isomer, unassigned) [Hy2A-16.2]"
13,100 to 1000,"CCS(=O)(=O)c1ccc(CNC(=O)c2ccc3c(c2)CCN(Cc2ccc(F)cc2)C3C)cc1 (racemic) [Hy2A-8, N-(4-(ethylsulfonyl)benzyl)-2-(4-fluorobenzyl)-1-methyl-1,2,3,4-tetrahydroisoquinoline-6-carboxamide]"

# Same assay, conditions: radio-ligand competition, RORγ LBD; head without unit (Tables 15, 17); read-out: Avg ROR Bind Ki
row,Structure (SMILES),Ki [nM]
1,"CCOC(=O)c1cnc(N2CCc3cc(C(=O)NCc4ccc(S(=O)(=O)CC)cc4)cnc3[C@@H]2C(C)C)nc1 (single isomer, unassigned) [Hy2B-4.2]",> 1000
2,"CCOC(=O)c1cnc(N2CCc3cc(C(=O)NCc4ccc(S(=O)(=O)CC)cc4)cnc3[C@@H]2C(C)C)nc1C(F)(F)F (single isomer, unassigned) [Hy2B-5.2]",100 to 1000
3,"CCS(=O)(=O)c1ccc(CNC(=O)c2cc3ccnc(OC[C@H]4CC[C@H](C(F)(F)F)CC4)c3[nH]2)cc1 [Hy4-5, N-(4-(ethylsulfonyl)benzyl)-7-(((1r,4r)-4-(trifluoromethyl)cyclohexyl)methoxy)-1H-pyrrolo[2,3-c]pyridine-2-carboxamide]",100 to 1000
4,"CCOC(=O)c1cnc(N2CCc3cc(C(=O)NCc4ccc(S(=O)(=O)CC)cc4)cnc3[C@H]2C(C)C)nc1C(F)(F)F (single isomer, unassigned) [Hy2B-5.1]",100 to 1000

# Now from value to molecule:
row,Ki [nM],Structure (SMILES)
1,100 to 1000,"CCS(=O)(=O)c1ccc(CNC(=O)c2cnc3c(c2)CCN(Cc2ccc(Cl)cc2)C3C(C)C)cc1 (single isomer, unassigned) [Hy2B-8.2]"
2,> 1000,"CCS(=O)(=O)c1ccc(CNC(=O)c2cnc3c(c2)CCN(c2ncc(C#N)cn2)[C@H]3C(C)C)cc1 (single isomer, unassigned) [Hy2B-1.1]"
3,> 1000,"CCS(=O)(=O)c1ccc(CNC(=O)c2cnc3c(c2)CCN(Cc2ccc(C#N)cc2)C3C(C)C)cc1 (single isomer, unassigned) [Hy2B-7.2]"
4,> 1000,"CCS(=O)(=O)c1ccc(CNC(=O)c2cnc3c(c2)CCN(c2ncc(C#N)cn2)[C@@H]3C(C)C)cc1 (single isomer, unassigned) [Hy2B-1.2]"
